Results on 41 compounds are retold here after paper PMC10424176, “Chamelogk: A Chromatographic Chameleonicity Quantifier to Design Orally Bioavailable Beyond-Rule-of-5 Drugs” (Journal of Medicinal Chemistry, 2023).

One data set can be described thus: physchem. It is filed as physicochemical. As to conditions: pH 7. The method, then: (§1) The mobile phases for every descriptor consisted of isocratic solutions of 20 mM ammonium acetate at pH 7.0 and acetonitrile at various percentages (see the specific descriptor). Small amounts of the 55 compounds were dissolved in buffer/acetonitrile mixtures (v/v) at concentrations ranging from 50 to 100 μg/mL. Subsequently, 10 μL of each solution (injection volume) was injected at an isocratic flow rate of 1 mL/min and analyzed at 30 °C (oven temperature). Chromatographic measurements were then analyzed in duplicate based on the specific chromatographic conditions of each descriptor.
BRlogD[39] required the injection of 55 samples into the X-Bridge column at 60% MeCN (predominant mobile phase constituent). The retention times and dead time (t0, baseline interference) were recorded, and the capacity factor log k’60 was calculated adapting eq 2. Lastly, BRlogD value was calculated from eq 3 [drawing 3] 3
On to `CC[C@@H]1/C=C(\C)C[C@H](C)C[C@H](OC)[C@H]2O[C@@](O)(C(=O)C(=O)N3CCCC[C@H]3C(=O)O[C@H](/C(C)=C/[C@@H]3CC[C@H](Cl)[C@H](OC)C3)[C@H](C)[C@@H](O)CC1=O)[C@H](C)C[C@@H]2OC` [pimecrolimus], for which the chromatographic logD is 6.52.

Assay in another data set: not given
As to conditions: cited from earlier work.
Consider `CO[C@H]1C[C@@H]2CC[C@@H](C)[C@@](O)(O2)C(=O)C(=O)N2CCCC[C@H]2C(=O)O[C@H]([C@H](C)C[C@@H]2CC[C@@H](OC(=O)C(C)(CO)CO)[C@H](OC)C2)CC(=O)[C@H](C)/C=C(\C)[C@@H](O)[C@@H](OC)C(=O)[C@H](C)C[C@H](C)/C=C/C=C/C=C/1C` [temsirolimus], for which the ChameLogD is on record as 2.

Another data set can be described thus: Chamelogk, chromatographic chameleonicity descriptor (PLRP-S RP-HPLC). It is filed as physicochemical. As to conditions: Exp. minus Ext. log k' PLRP-S at 100% MeCN; linear fit at 50, 60, 70% MeCN; 20 mM ammonium acetate pH 7.0; 30 °C.
The compound `COc1cc(C(=O)NCCOCCOCCOCCC(=O)Nc2cccc3c2C(=O)N(C2CCC(=O)NC2=O)C3=O)ccc1Nc1ncc(C(F)(F)F)c(Oc2cccc3c2C(=O)CC3)n1` (stereo not drawn) [BI-3663] showed a Chamelogk of 0.5.
Still for that read-out and setting: in the case of `O=C1CCC(N2C(=O)c3cccc(F)c3C2=O)C(=O)N1` (stereo not drawn) [4-F-thalidomide] it was 0.23; in that of `Cc1sc2c(c1C)C(c1ccc(Cl)cc1)=N[C@@H](CC(=O)NCCCCCCCCNC(=O)COc1cccc3c1C(=O)N(C1CCC(=O)NC1=O)C3=O)c1nnc(C)n1-2` (stereo partly drawn) [dBET6], 0.86; in that of `CCN1C(=O)c2cc(C)ccc2Nc2ncccc21` [BI-1580], 0.1.
On the same count and under the same terms, in the case of `CC(=O)N1c2ccc(-c3ccc(C(=O)NCCOCCOCCOCC(=O)N[C@H](C(=O)N4C[C@H](O)C[C@H]4C(=O)NCc4ccc(-c5scnc5C)cc4)C(C)(C)C)cc3)cc2[C@H](Nc2ccc(Cl)cc2)C[C@@H]1C` [MZP-54] it was 1.18.
Same read-out and setting: the value for `COc1cc(C(=O)NCCOCCOCCOCC(=O)N[C@H](C(=O)N2C[C@H](O)C[C@H]2C(=O)NCc2ccc(-c3scnc3C)cc2)C(C)(C)C)ccc1Nc1ncc(C(F)(F)F)c(Oc2cccc3c2C(=O)CC3)n1` [BI-0319] was 0.99; that for `CC(=O)O[C@H]1C(=O)[C@@]2(C)[C@H]([C@H](OC(=O)c3ccccc3)[C@]3(O)C[C@H](OC(=O)[C@H](O)[C@@H](NC(=O)c4ccccc4)c4ccccc4)C(C)=C1C3(C)C)[C@]1(OC(C)=O)CO[C@@H]1C[C@@H]2O` [paclitaxel] was 0.15; that for `Cc1ncsc1-c1ccc(CNC(=O)[C@@H]2C[C@@H](O)CN2C(=O)[C@@H](NC(=O)COCCOCCNC(=O)COc2cnc3c(C4CCN(C(=O)c5ccc(OC(F)(F)F)cc5)CC4)ncnc3c2)C(C)(C)C)cc1` [PROTAC-1] was 1.07.
On to `CC(=O)N[C@H](C(=O)N1C[C@H](O)C[C@H]1C(=O)NCc1ccc(-c2scnc2C)cc1O)C(C)(C)C` [phenol-VH032 (S,R,S)], for which the Chamelogk is on record as 0.37.
For `CCCN1C(=O)c2ccc(Cl)cc2Nc2ncccc21` [BI-0115], the Chamelogk came out at 0.19.
Same read-out and setting: in the case of `O=C(CCCCC(=O)NCCN1C(=O)c2cccc3c(Sc4ccc(Br)cc4)ccc(c23)C1=O)NCCCCCCNc1cccc2c1C(=O)N(C1CCC(=O)NC1=O)C2=O` (stereo not drawn) [PROTAC Mcl degrader-1] it was 0.93.
Same read-out and setting: in the case of `c1ccc(-c2ccc(C(c3ccccc3)n3ccnc3)cc2)cc1` (stereo not drawn) [bifonazole] it was 0.45.
Consider `COc1cc2ncnc(Nc3ccc(F)c(Cl)c3)c2cc1OCCCCCOCCOCCC(=O)N[C@H](C(=O)N1C[C@H](O)C[C@H]1C(=O)NCc1ccc(-c2scnc2C)cc1)C(C)(C)C` [gefitinib-based PROTAC 3], for which the Chamelogk is on record as 1.36.
The compound `C=C/C=C/C[C@@H](C)[C@@H](O)[C@H]1C(=O)N[C@@H](CC)C(=O)N(C)CC(=O)N(C)[C@@H](CC(C)C)C(=O)N[C@@H](C(C)C)C(=O)N(C)[C@@H](CC(C)C)C(=O)N[C@@H](C)C(=O)N[C@H](C)C(=O)N(C)[C@@H](CC(C)C)C(=O)N(C)[C@@H](CC(C)C)C(=O)N(C)[C@@H](C(C)C)C(=O)N1C` [voclosporin] showed a Chamelogk of 1.15.
`Cc1ncsc1-c1ccc(CNC(=O)[C@@H]2C[C@@H](O)CN2C(=O)[C@@H](NC(=O)CCCCOCCCCCOCCCCCCNc2cccc3c2C(=O)N(C2CCC(=O)NC2=O)C3=O)C(C)(C)C)cc1` (stereo partly drawn) [CRBN-6-5-5-VHL] had a Chamelogk of 1.05.
On to `CC[C@@H]1/C=C(\C)C[C@H](C)C[C@H](OC)[C@H]2O[C@@](O)(C(=O)C(=O)N3CCCC[C@H]3C(=O)O[C@H](/C(C)=C/[C@@H]3CC[C@H](Cl)[C@H](OC)C3)[C@H](C)[C@@H](O)CC1=O)[C@H](C)C[C@@H]2OC` [pimecrolimus], for which the Chamelogk was determined as 0.43.
On to `Cc1sc2c(c1C)C(c1ccc(Cl)cc1)=N[C@@H](CC(=O)NCCCCCC(=O)NCc1cccc3c1C(=O)N(C1CCC(=O)NC1=O)C3=O)c1nnc(C)n1-2` (stereo partly drawn) [PROTAC BET degrader-10], for which the Chamelogk came to 0.83.
With `Nc1ccc(OCCOCCOCCOCCNc2cccc3c2C(=O)N(C2CCC(=O)NC2=O)C3=O)cc1` (stereo not drawn) [PEG4-PH-NH2-pomalidomide], the Chamelogk was determined as 0.12.
Turning to `COc1cc(C(=O)NCCOCCOCCOCC(=O)N[C@H](C(=O)N2C[C@@H](O)C[C@H]2C(=O)NCc2ccc(-c3scnc3C)cc2)C(C)(C)C)ccc1Nc1ncc(C(F)(F)F)c(Oc2cccc3c2C(=O)CC3)n1` [BI-4206], the Chamelogk stood at 0.7.
Still for that read-out and setting: the value for `CC(=O)N[C@H](C(=O)N1C[C@@H](O)C[C@H]1C(=O)NCc1ccc(-c2scnc2C)cc1O)C(C)(C)C` [cis-phenol-VH032 (S,S,S)] was 0.65; that for `Oc1ccccc1` [phenol] was 0.16.
In the case of `O=C1CCC(N2C(=O)c3cccc(O)c3C2=O)C(=O)N1` (stereo not drawn) [4-hydroxy thalidomide], the Chamelogk entry is “–0.16”.
On the same count and under the same terms, in the case of `Cc1ncsc1-c1ccc(CNC(=O)[C@@H]2C[C@H](O)CN2C(=O)[C@@H](NC(=O)C2(C#N)CC2)C(C)(C)C)c(O)c1` [cis-OH-VH298 (S,S,S)] it was 0.45; in that of `COC(=O)C[C@@H]1N=C(c2ccc(Cl)cc2)c2c(sc(C)c2C)-n2c(C)nnc21` [MS-417], 0.29.
Still for that read-out and setting: in the case of `CC/C(=C(/CC)c1ccc(O)cc1)c1ccc(O)cc1` [diethylstilbestrol] it was 0.44.
For `CN1C(=O)CN=C(c2ccccc2)c2cc(Cl)ccc21` [diazepam], the Chamelogk is on record as 0.30.
On the same count and under the same terms, the value for `COC(=O)C[C@@H]1N=C(c2ccc(Cl)cc2)c2c(sc(C(=O)NCCCCCNc3cccc4c3C(=O)N(C3CCC(=O)NC3=O)C4=O)c2C)-n2c(C)nnc21` (stereo partly drawn) [ZXH-3-26] was 0.65; that for `Cc1ncsc1-c1ccc(CNC(=O)[C@@H]2C[C@@H](O)CN2C(=O)[C@@H](NC(=O)CCOCCOc2ccc(Nc3ncc(C(F)(F)F)c(NCc4cccc(N(C)S(C)(=O)=O)c4)n3)cc2)C(C)(C)C)cc1` [PROTAC FAK degrader-1] was 0.79.
The same measure, in the same setting: in the case of `CC(=O)N[C@H](C(=O)N1C[C@H](O)C[C@H]1C(=O)NCc1ccc(-c2scnc2C)cc1)C(C)(C)SCCCCCCNC(=O)C[C@@H]1N=C(c2ccc(Cl)cc2)c2c(sc(C)c2C)-n2c(C)nnc21` [BRD4 degrader AT1] it was 1.26.
For `Cc1sc2c(c1C)C(c1ccc(Cl)cc1)=NC(CC(N)=O)c1nnc(C)n1-2` (stereo not drawn) [CPI203], the Chamelogk is reported as 0.54.
Still for that read-out and setting: the value for `Brc1cnc2ccccc2c1` [3-bromoquinoline] was 0.13; that for `C[C@]12CCC(=O)C=C1CC[C@@H]1[C@@H]2[C@@H](O)C[C@@]2(C)[C@H]1CC[C@]2(O)C(=O)CO` [hydrocortisone] was 0.10.
On the same count and under the same terms, the value for `CO[C@H]1C[C@@H]2CC[C@@H](C)[C@@](O)(O2)C(=O)C(=O)N2CCCC[C@H]2C(=O)O[C@H]([C@H](C)C[C@@H]2CC[C@@H](OC(=O)C(C)(CO)CO)[C@H](OC)C2)CC(=O)[C@H](C)/C=C(\C)[C@@H](O)[C@@H](OC)C(=O)[C@H](C)C[C@H](C)/C=C/C=C/C=C/1C` [temsirolimus] was 0.23.
Same read-out and setting: in the case of `Nc1cccc2c1C(=O)N(C1CCC(=O)NC1=O)C2=O` (stereo not drawn) [pomalidomide] it was 0.00.
Turning to `CC(C)=O` [acetone], the Chamelogk result is listed as “–0.13”.
Compound `Clc1ccccc1C(c1ccccc1)(c1ccccc1)n1ccnc1` [clotrimazole] returned a Chamelogk of 0.71.
The compound `Cc1ncsc1-c1ccc(CNC(=O)[C@@H]2C[C@@H](O)CN2C(=O)[C@@H](NC(=O)C2(C#N)CC2)C(C)(C)C)c(O)c1` [OH-VH298 (S,R,S)] yielded a Chamelogk of 0.48.
Compound `c1ccc2ccccc2c1` [naphthalene] registered a Chamelogk of 0.02.
For the compound `Cc1sc2c(c1C)C(c1ccc(Cl)cc1)=N[C@@H](CC(=O)Nc1ccc(O)cc1)c1nnc(C)n1-2` [OTX-015], the Chamelogk came to 0.64.
Compound `Cc1sc2c(c1C)C(c1ccc(Cl)cc1)=N[C@@H](CC(=O)NCCCCNC(=O)COc1cccc3c1C(=O)N(C1CCC(=O)NC1=O)C3=O)c1nnc(C)n1-2` (stereo partly drawn) [dBET1] displayed a Chamelogk of 0.8.
The same measure, in the same setting: the value for `CCn1nc(C2CC2)cc1Nc1nc(C(=O)NC)nc2[nH]c3cc(-c4c(C)noc4C)c(OC)cc3c12` [HJB97] was 0.15.

Still in this data set, the particulars now being: Exp. minus Ext. log k' PLRP-S at 100% MeCN; linear fit at 50, 60, 70% MeCN; 20 mM ammonium acetate pH 7.0; 30 °C; listed as Diazepam.
In turn, `CN1C(=O)CN=C(c2ccccc2)c2cc(Cl)ccc21` [diazepam] had a Chamelogk of 0.3.

Staying with this data set, now noted: Exp. minus Ext. log k' PLRP-S at 100% MeCN; linear fit at 50, 60, 70% MeCN; 20 mM ammonium acetate pH 7.0; 30 °C; listed as Hydrocortisone.
Take `C[C@]12CCC(=O)C=C1CC[C@@H]1[C@@H]2[C@@H](O)C[C@@]2(C)[C@H]1CC[C@]2(O)C(=O)CO` [hydrocortisone]: the Chamelogk turned out to be 0.1.

The same data set, now with this note: Exp. minus Ext. log k' PLRP-S at 100% MeCN; linear fit at 50, 60, 70% MeCN; 20 mM ammonium acetate pH 7.0; 30 °C; listed as Pomalidomide.
In the case of `Nc1cccc2c1C(=O)N(C1CCC(=O)NC1=O)C2=O` (stereo not drawn) [pomalidomide], the Chamelogk is given as 0.

The nature of a further data set: log kW^IAM and Δ log kW^IAM (IAM chromatography). It is filed as physicochemical. As to conditions: IAM column, extrapolated to 100% buffer from 10 to 50% MeCN, pH 7.0. The method, then: as §1, with “descriptor. […] The retention times of the samples were recorded, and the capacity factor was calculated for each mobile phase condition adapting eq 2, where t0 is the retention time of citric acid.” for “descriptor.”
On to `CC[C@@H]1/C=C(\C)C[C@H](C)C[C@H](OC)[C@H]2O[C@@](O)(C(=O)C(=O)N3CCCC[C@H]3C(=O)O[C@H](/C(C)=C/[C@@H]3CC[C@H](Cl)[C@H](OC)C3)[C@H](C)[C@@H](O)CC1=O)[C@H](C)C[C@@H]2OC` [pimecrolimus], for which the “log kW^IAM” value is recorded as 3.35.

The data set is the same for the next values; noted with them: polarity; from log kW^IAM and BRlogD (eq 4, 5).
In the case of `CC[C@@H]1/C=C(\C)C[C@H](C)C[C@H](OC)[C@H]2O[C@@](O)(C(=O)C(=O)N3CCCC[C@H]3C(=O)O[C@H](/C(C)=C/[C@@H]3CC[C@H](Cl)[C@H](OC)C3)[C@H](C)[C@@H](O)CC1=O)[C@H](C)C[C@@H]2OC` [pimecrolimus], the “Δ log kW^IAM” value is recorded as -1.62.

What is called chromatographic logD is a lipophilicity value derived from retention on a column.
